What was measured:
human GnRH receptors = biological target: T1, human GnRH receptors (Homo sapiens, UniProt P30968); test: Human GnRH receptor functional assay (intracellular calcium release); type: cell-based; settings: CHO-K1 cells expressing human GnRH receptors; block of GnRH (EC80)-induced intracellular calcium release; 20 minutes pre-incubation
T1 construct: expressed in transfected cells; host or cells: CHO-K1
T1 sequence (P30968 1-328): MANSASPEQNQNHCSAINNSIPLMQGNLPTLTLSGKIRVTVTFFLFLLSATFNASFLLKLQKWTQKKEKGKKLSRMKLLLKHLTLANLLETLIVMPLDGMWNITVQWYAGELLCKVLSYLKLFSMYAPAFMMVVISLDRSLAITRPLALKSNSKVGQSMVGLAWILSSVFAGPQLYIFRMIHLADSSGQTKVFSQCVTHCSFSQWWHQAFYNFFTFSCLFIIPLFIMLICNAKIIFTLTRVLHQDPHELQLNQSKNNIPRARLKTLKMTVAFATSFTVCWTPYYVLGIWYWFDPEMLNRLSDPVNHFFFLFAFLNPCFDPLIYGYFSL
Procedure: Human GnRH Receptor Functional Assay
GnRH-receptor antagonists may be functionally assessed by measurement of change in intracellular calcium levels induced by Gαq mediated increase in IP3 levels. The ability of compounds to block the intracellular release of calcium by GnRH in CHO-K1 cells expressing human GnRH receptors is determined as a measure of the compound's antagonist activity in vitro. Approximately 30,000 cells per assay well (half well 96 well assay plate—Corning) are seeded in normal culture medium. Twenty four hours after seeding the cells are loaded with a calcium sensitive fluorescent dye by replacing the culture medium with assay buffer (1× Hanks buffered saline, 25 mM HEPES, 0.1% w/v fatty acid free BSA, pH7.4) containing 2.5 mM probenecid and 1× Calcium Plus reagent (Molecular) Devices. Cells are incubated at 37° C. for 1 hour to allow for dye uptake. To test for antagonist activity, compounds at a concentration range between 0.1 nM-3.2 μM are added to the assay wells and allowed to incubate 20 minutes prior to stimulation with GnRH. After incubation with test compounds the assay plate is placed in a Flexstation II (Molecular Devices) and GnRH is added at the determined EC80 concentration (final). Ligand-dependent changes in intracellular calcium levels are determined by measuring changes in fluorescence of the dye at […] following excitation at 485 nm. Percentage inhibition curves are plotted using 4-parameter fit algorithm and IC50 values calculated for each compound.

melting point [°C]	IC50 (human GnRH receptors) [nM]	SMILES
85		COc1nc(NCCCN2CCOCC2)nc(OC)c1NC(=O)c1coc(Oc2cccc(C(C)(C)C)c2)n1 [Example 1, 2-(3-tert-butylphenoxy)-N-(4,6-dimethoxy-2-(3-morpholinopropylamino)pyrimidin-5-yl)oxazole-4-carboxamide]
68	485	COc1nc(NCCCN2CCOCC2)nc(OC)c1NC(=O)c1csc(Oc2cccc(C(C)(C)C)c2)n1 [Example 2, 2-(3-tert-butylphenoxy)-N-(4,6-dimethoxy-2-(3-morpholinopropylamino)pyrimidin-5-yl)thiazole-4-carboxamide]
	193	COc1nc(NCCN(C)C)nc(OC)c1NC(=O)c1csc(Oc2cc(C(C)(C)C)ccc2C)n1 [Example 5, 2-(5-tert-Butyl-2-methylhenoxy)-N-(2-(2-(dimethylamino)ethylamino)-4,6-dimethoxypyrimidin-5-yl)thiazole-4-carboxamide]
	4	COc1cc2c(cc1Oc1nc(C(=O)Nc3c(OC)nc(NCCNC(C)C)nc3OC)cs1)C(C)(C)CC2 [Example 24, N-(2-(2-(Isopropylamino)ethylamino)-4,6-dimethoxypyrimidin-5-yl)-2-(6-methoxy-3,3-dimethyl-2,3-dihydro-1H-inden-5-yloxy)thiazole-4-carboxamide]

From patent US20090209522A1, “Heterocyclic Non-Peptide GNRH Antagonists” (priority 2005, published 2009)
